Patent US20170042152A1, “SAFENED HERBICIDAL COMPOSITIONS COMPRISING PYRIDINE CARBOXYLIC ACIDS” (priority 2015, published 2017)

Experiments:
Conditions in all cases: 20 g ae/ha herbicide (triisopropanol amine salt), no safener, post-emergence, mean
winter wheat (TRZAW) = test: Small plot field trial, crop safety; type: in vivo, Triticum aestivum
Description: (§1) The triisopropanol amine salts of herbicides of formulas I-G-A, I-G-B and I-G-C were tested with and without cloquintocet-mexyl in small plot field trials across various ecozones to evaluate the crop safety of these compounds on […] cereals including winter wheat and durum wheat.
(§2) All herbicide treatments were applied post-emergence in the spring to early summer. Herbicides were applied with bicycle or tractor-mounted sprayers using carbon dioxide (CO2) as a propellant. The sprayers delivered a uniform spray pattern that provided thorough coverage of the foliage using a 150 or 200 L/ha spray volume. At the time of herbicide applications, winter wheat was at the two leaf growth stage and durum wheat was at the 2-3 leaf growth stage.
(§3) Phytotoxicity to cereal crops was visually assessed as percent overall injury, compared to an untreated control plot. The overall injury assessments were based on visual ratings of growth inhibition, chlorosis, and delay in maturity. At late ratings (54-57 days after application), percent visual seed head deformity and reduction in seed formation were also assessed. Trials were designed as randomized complete blocks with four replicates. In general, three to four replicates were assessed for each treatment.

Canada thistle (CIRAR) = test: Small plot field trial, weed growth reduction; type: in vivo, Cirsuim arvensis
durum wheat (TRZDU) = test: Small plot field trial, crop safety; type: in vivo, Triticum durum
Description: as §1, §2, §3

lambsquarters (CHEAL) = test: Small plot field trial, weed growth reduction; type: in vivo, Chenopodium album

| SMILES | Instances of TRZAW grain reduction, % of untreated (winter wheat (TRZAW)) | TRZAW grain formation reduction, % of untreated (winter wheat (TRZAW)) | Growth reduction of CIRAR, % of untreated (Canada thistle (CIRAR)) | TRZDU Visual head deformation, % of untreated (durum wheat (TRZDU)) | TRZDU Visual injury, % of untreated (durum wheat (TRZDU)) | Growth reduction of CHEAL, % of untreated (lambsquarters (CHEAL)) |
| --- | --- | --- | --- | --- | --- | --- |
| CC(F)c1nc(C(=O)O)c(Cl)c(N)c1F (stereo not drawn) [formula I-G-B] | 83.3 % of untreated | 68.3 % of untreated | 85 % of untreated | 6.4 % of untreated | 6.4 % of untreated | 100 % of untreated |
| CC(F)(F)c1nc(C(=O)O)c(Cl)c(N)c1F [formula I-G-C] | – | – | – | 23.6 % of untreated | 33.6 % of untreated | 100 % of untreated |
